# Experiment: Waters ACQUITY UPLC BEH C18, 100 × 2.1 mm, 1.7 µm, 40 °C, 0.3 to 0.4 mL/min, estimated dead time 0.63 min; A: water + 0.1% formic acid; B: methanol + 0.1% formic acid; gradient (min/%B) 0/0.5 0.1/0.5 10/80 10.1/99.5 12/99.5
# Settings: stereoisomer not certain
row,SMILES,LC retention time [min]
1,CC(C)=CCCC(C)(OC1OC(CO)C(O)C(O)C1O)C1CCC2(C)C1C(O)CC1C3(C)CCC(O)C(C)(C)C3C(O)CC12C (stereo not given),6.59
2,CC1OC(OC2C(COC3OC(CO)C(O)C(O)C3O)OC(OC3CCC4(C)C(CCC5(C)C4C=CC4=C6CC(C)(C)CCC6(CO)C(O)CC45C)C3(C)C)C(O)C2O)C(O)C(O)C1O (stereo not given),6.29
3,O=c1cc(-c2ccc(O)c(O)c2)oc2cc(O)c(C3OC(CO)C(O)C(O)C3O)c(O)c12 (stereo not given),3.59
4,OCC1OC(Oc2cc3c(O)cc(O)cc3[o+]c2-c2ccc(O)cc2)C(O)C(O)C1O (stereo not given),3.12
5,O=C(C=Cc1ccc(O)c(O)c1)OC1CC(O)(C(=O)O)CC(O)C1O (stereo not given),3.13
6,CC1OC(OC2C(Oc3cc(O)c4c(c3)OC(c3ccc(O)c(O)c3)CC4=O)OC(CO)C(O)C2O)C(O)C(O)C1O (stereo not given),4.04
7,CC(C)=CCc1cc(C2CC(=O)c3c(O)cc(O)cc3O2)ccc1O (stereo not given),8.11
8,CCC=CCC1C(=O)C=CC1CCCCCCCC(=O)O (stereo not given),9.37
9,O=c1cc(-c2ccc(O)cc2)oc2cc(O)ccc12,7.38
10,CC(CS)C(=O)N1CCCC1C(=O)O (stereo not given),4.05
11,CC(C)=CCc1cc(CCc2cc(O)c(CC=C(C)C)c(O)c2)ccc1O,9.01
12,O=c1cc(-c2ccc(O)c(O)c2)oc2cc(O)c(C3OC(CO)C(O)C(O)C3OC3OC(CO)C(O)C(O)C3O)c(O)c12 (stereo not given),3.44
13,C[N+]1([O-])CCCC1c1cccnc1 (stereo not given),1.82
14,CCCCCC(=O)OC1C(OC2(CO)OC(CO)C(OC(C)=O)C2O)OC(CO)C(OC(=O)CCCC)C1OC(=O)CCCC (stereo not given),9.02
15,CC=CSSC=CC,6.41
16,COc1ccc2ccc(=O)oc2c1CC=C(C)C,8.75
17,COc1cc(C(C)=O)cc(OC)c1O,4.31
18,Cc1ncc(COC2OC(CO)C(O)C(O)C2O)c(CO)c1O (stereo not given),1.7
19,CC1OC(OC2CC(C)(C)CC3C4=CCC5C6(C)CCC(OC7OC(C(=O)O)C(O)C(O)C7OC7OC(CO)C(O)C(O)C7OC7OCC(O)C(O)C7O)C(C)(CO)C6CCC5(C)C4(C)CCC23C)C(O)C(O)C1O (stereo not given),5.56
20,CCOC1OC(=O)c2cc3ccc4c(c3c(-c3ccc5c(c3)OCO5)c21)OCO4 (stereo not given),8.82
21,CCCCCC(=O)OC1C(CO)OC(OC2(CO)OC(CO)C(OC(C)=O)C2O)C(OC(=O)CCCCC)C1OC(=O)CCCCC (stereo not given),9.97
22,O=C(O)C(Cc1ccccc1)NCC1(O)OC(CO)C(O)C1O (stereo not given),2.33
23,O=C(C=Cc1ccc(O)c(O)c1)c1ccc(OC2OC(CO)C(O)C(O)C2O)c(O)c1O (stereo not given),4.1
24,O=c1c(OC2OC(CO)C(O)C(O)C2OC2OC(CO)C(O)C(O)C2O)c(-c2ccc(O)cc2)oc2cc(O)cc(O)c12 (stereo not given),3.8
25,O=C(O)CCSCCC(=O)O,2.06
26,CC1OC(OC2C(OC3C(OC4CCC5(C)C(CCC6(C)C5CC=C5C7CC(C)(C)CC(OC(=O)CC(=O)O)C7(C)CCC56C)C4(C)CO)OC(C(=O)O)C(O)C3O)OC(CO)C(O)C2O)C(O)C(O)C1O (stereo not given),6.73
27,COc1ccc(-c2cc(=O)c3c(O)cc(OC4OC(COC5OC(C)C(O)C(O)C5O)C(O)C(O)C4O)cc3o2)cc1 (stereo not given),5.19

row,SMILES,LC retention time [min]
1,O=C(O)CCC(NC(=O)Cc1c[nH]c2ccccc12)C(=O)O (stereo not given),4.12
2,O=C1CC(c2ccccc2O)Oc2ccccc21 (stereo not given),7.45
3,COc1cc(C2c3cc4c(cc3C(OC3OC5COC(C)OC5C(O)C3O)C3COC(=O)C23)OCO4)cc(OC)c1O (stereo not given),5.4
4,CNC(=O)Oc1ccc2c(c1)C1(C)CCN(C)C1N2C (stereo not given),3.31
5,CC1OC(OC2C(Oc3cc(O)c4c(=O)cc(-c5ccc(O)cc5)oc4c3)OC(CO)C(O)C2O)C(O)C(O)C1O (stereo not given),4.34
6,COc1cc(C(O)C(CO)Oc2c(OC)cc(-c3cc(=O)c4c(O)cc(OC5OC(COC(=O)CC(=O)O)C(O)C(O)C5O)cc4o3)cc2OC)ccc1O (stereo not given),5.17
7,O=c1c(OC2OC(CO)C(O)C(O)C2O)c(-c2ccc(OC3OC(CO)C(O)C(O)C3O)c(O)c2)oc2cc(O)cc(O)c12 (stereo not given),3.54
8,O=c1c(O)c(-c2ccc(O)cc2)oc2ccccc12,8.56
9,CCC1=NC2CC3(C(=O)N(OC)c4ccccc43)C3CC1C2CO3 (stereo not given),3.99
10,O=c1c(OC2OCC(O)C(O)C2O)c(-c2ccc(O)cc2)oc2cc(O)cc(O)c12 (stereo not given),4.47
11,Cc1ccc([N+](=O)[O-])cc1N,2.34
12,CC1(C)CCC2(C(=O)OC3OC(CO)C(O)C(O)C3O)CCC3(C)C(=CCC4C5(C)CCC(OC6OC(C(=O)O)C(OC7OC(CO)C(O)C7O)C(O)C6O)C(C)(C)C5CCC43C)C2C1 (stereo not given),6.39
13,COc1ccc(C2OCC3C(c4ccc(OC5OC(CO)C(O)C(O)C5O)c(OC)c4)OCC23)cc1OC (stereo not given),5.13
14,COc1ccc2c(c1)OC(OC1OC(CO)C(O)C(O)C1O)C(=O)N2O (stereo not given),3.5
15,CC1OC(OCC2OC(Oc3cc(O)c4c(c3)OC(c3ccc(O)c(O)c3)CC4=O)C(O)C(O)C2O)C(O)C(O)C1O (stereo not given),3.92
16,CC1=C(CCC(C)COC2OC(CO)C(O)C(O)C2O)OC2CC3C4CC=C5CC(O)CC(OC6OCC(O)C(O)C6OC6OC(C)C(O)C(O)C6O)C5(C)C4CCC3(C)C12 (stereo not given),5.59
17,CCC12CCCN3CCc4c(n(c5ccccc45)C(=O)C1)C32 (stereo not given),4.65
18,CCCCCC=CCC(O)C(O)CCCCCCCC(=O)O (stereo not given),8.54
19,CC1(C)CC2C3=CCC4C5(C)CCC(OC6OC(C(=O)O)C(O)C(O)C6OC6OC(CO)C(O)C(O)C6OC6OC(CO)C(O)C(O)C6O)C(C)(CO)C5CCC4(C)C3(C)CCC2(C)C(O)C1O (stereo not given),5.81
20,COc1cc2c3c(c1OC)-c1cc4c(cc1CC3N(C)CC2)OCO4 (stereo not given),4.89
21,COc1cc(C=CC(=O)OC2C(OC3COC(c4c(O)cc5oc(-c6ccc(O)cc6)cc(=O)c5c4O)C(O)C3O)OC(CO)C(O)C2O)ccc1O (stereo not given),4.71
22,O=C(O)C(Cc1ccccc1)NC(=O)C1CCCN1 (stereo not given),2.99
23,CC1OC(OCC2OC(Oc3c(-c4ccc(O)c(O)c4)oc4cc(O)cc(O)c4c3=O)C(O)C(O)C2O)C(O)C(O)C1O (stereo not given),3.86
24,O=CC=Cc1ccc(O)cc1,4.53
25,COc1cc(O)c2c(c1)OC(c1ccc(O)c(-c3c(O)cc(O)c4c(=O)cc(-c5ccc(O)cc5)oc34)c1)CC2=O (stereo not given),5.58
26,CC1=NCCc2c1[nH]c1cc(O)ccc21,3.06
27,CC1=C2C(=O)C3C(CC=C4CC(OC5OC(CO)C(O)C(O)C5O)CCC43C)C2CCC12OC1CC(C)CNC1C2C (stereo not given),4.01

row,SMILES,LC retention time [min]
1,CC1CCC2(OC1)OC1CC3C4CC=C5CC(O)CC(OC6OCC(O)C(O)C6OC6OC(C)C(O)C(O)C6O)C5(C)C4CCC3(C)C1C2C (stereo not given),8.57
2,O=C(Cc1c[nH]c2ccccc12)NC(Cc1c[nH]c2ccccc12)C(=O)O (stereo not given),6.19
3,COc1ccc2c3c([nH]c2c1)C1CC2C(=CCO)CN1C1C3OCC21 (stereo not given),3.6
4,COCC12CCC(OC)C34C5CC6(O)C(OC)C(O)C(OC(C)=O)(C5C6OC(=O)c5ccccc5)C(C(OC)C13)C4N(C)C2 (stereo not given),5.97
5,C=CC1C(OC2OC(CO)C(O)C(O)C2O)OC=C(C(=O)O)C1CC1NCCc2c1[nH]c1ccccc21 (stereo not given),3.94
6,O=C1NCCc2c1[nH]c1ccccc21,5.53
7,COc1ccc2cc1Oc1ccc(cc1)CC1c3cc(c(OC)cc3CCN1C)Oc1c(OC)c(OC)cc3c1C(C2)N(C)CC3 (stereo not given),4.19
8,COc1cc(O)c2c(c1)OC(c1ccc(O)cc1)CC2=O (stereo not given),7.42
9,O=c1cc(-c2ccc(O)cc2)oc2cc(OC3OC(CO)C(O)C(O)C3OC3OCC(O)(CO)C3O)cc(O)c12 (stereo not given),4.71
10,O=C(CCc1ccc(O)cc1)c1c(O)cc(O)cc1OC1OC(CO)C(O)C(O)C1O (stereo not given),4.73
11,COc1cc(-c2cc(=O)c3c(O)cc(OC4OC(CO)C(O)C(O)C4OC4OC(C)C(O)C(O)C4O)cc3o2)cc(OC)c1O (stereo not given),4.36
12,COc1ccc(-c2cc(=O)c3c(O)cc(OC4OC(C(=O)O)C(O)C(O)C4O)cc3o2)cc1O (stereo not given),4.6
13,O=C1CC(c2ccc(O)c(O)c2)Oc2cc(OC3OC(CO)C(O)C(O)C3O)cc(O)c21 (stereo not given),4.09
14,COc1ccc(CC2COC(=O)C2Cc2ccc(OC3OC(CO)C(O)C(O)C3O)c(OC)c2)cc1OC (stereo not given),5.18
15,CC(CCC1(O)OC2CC3C4CCC5(O)CC(OC6OC(CO)C(O)C(O)C6O)C(O)CC5(C)C4CCC3(C)C2C1C)COC1OC(CO)C(O)C(O)C1O (stereo not given),4.69
16,CCC(O)(C(=O)O)c1cc2n(c(=O)c1COC(C)=O)Cc1cc3ccccc3nc1-2 (stereo not given),5.4
17,CS(=O)CCCCCCCCC(N)C(=O)O (stereo not given),2.74
18,CC1=C(CCC(C)COC2OC(CO)C(O)C(O)C2OC2OC(C)C(O)C(O)C2O)OC2CC3C4CC=C5CC(O)CC(OC6OC(CO)C(O)C(O)C6O)C5(C)C4CCC3(C)C12 (stereo not given),5.2
19,NC(CCC(=O)NC(Cc1ccc(O)cc1)C(=O)O)C(=O)O (stereo not given),2.36
20,CC(C)=CCc1c(O)c(-c2cc(-c3cc(=O)c4c(O)cc(O)cc4o3)ccc2O)c2oc(-c3ccc(O)cc3)cc(=O)c2c1O,7.57
21,COc1ccc(-c2coc3cc(OC4OC(CO)C(O)C(O)C4O)cc(O)c3c2=O)cc1 (stereo not given),5.73
22,CSCCCCCCCN=C=S,9.19
23,COc1cc2c3cc1Oc1c(OC)c(OC)cc4c1C(Cc1ccc(cc1)Oc1cc(ccc1O)CC3N(C)CC2)N(C)CC4 (stereo not given),3.76
24,COc1cc(CCN)ccc1O,2.06
25,O=C1CC(c2ccccc2)Oc2ccc(O)cc21 (stereo not given),7.17
26,CCCCCC=CC=CC(=O)CCCCCCCC(=O)O,10.2

# — the RepoRT retention time repository
